Laboratory results from patent US10485844B2, “Methods for treating severe atopic dermatitis by administering an IL-4R inhibitor” (Regeneron Pharmaceuticals, Inc., priority 2016, dated 2019).

Tested on: patients with moderate-to-severe AD
Assay: Pooled subgroup analysis of two 16-week phase 3 dupilumab monotherapy trials by CsA eligibility / CsA history
Type: in vivo, human
Details: for Patients achieving EASI 75, n (%) / Patients achieving IGA 0-1, n (%) / bacterial conjunctivitis rate / conjunctivitis rate: 16 weeks; for Patients achieving a ≥4-point improvement in peak pruritus NRS, n/N1 (%): baseline NRS ≥4
Procedure: Pts (N=1379) with moderate-to-severe AD whose disease was not adequately controlled by topical medications or for whom topical treatment is medically inadvisable were randomized to receive subcutaneous injections of placebo (PBO) or dupilumab 300 mg every 2 weeks (q2w) or weekly (qw) for 16 weeks.
Subset A pts had, on average, more severe disease than subset B pts, as assessed by Eczema Area and Severity Index (EASI; mean baseline±SD EASI score 37.2±14.69 vs 32.0±13.29; nominal p<0.0001).

[1] = CSA-eligible subset, Dupilumab 300 mg Q2W
[2] = CSA-eligible subset, Dupilumab 300 mg QW
[3] = CSA-ineligible subset, Dupilumab 300 mg Q2W
[4] = CSA-ineligible subset, Dupilumab 300 mg QW

What does the source list for “dupilumab: fully human anti-IL-4R antibody; heavy chain SEQ ID NO: 9, light chain SEQ ID NO: 10”?
Patients achieving EASI 75, n (%) (CSA-eligible subset, Dupilumab 300 mg Q2W (N = 353)): (49.9) %; Patients achieving IGA 0-1, n (%) [1]: (38.8) %; Patients achieving a ≥4-point improvement in peak pruritus NRS, n/N1 (%) [1]: (39.7) %; Patients achieving EASI 75, n (%) (CSA-eligible subset, Dupilumab 300 mg QW (N = 366)): (54.1) %; Patients achieving IGA 0-1, n (%) [2]: (39.1) %; Patients achieving a ≥4-point improvement in peak pruritus NRS, n/N1 (%) [2]: (40.5) %; Patients achieving EASI 75, n (%) (CSA-ineligible subset, Dupilumab 300 mg Q2W (N = 104)): (40.4) %; Patients achieving IGA 0-1, n (%) [3]: (30.8) %; Patients achieving a ≥4-point improvement in peak pruritus NRS, n/N1 (%) [3]: (33.7) %; Patients achieving EASI 75, n (%) (CSA-ineligible subset, Dupilumab 300 mg QW (N = 96)): (35.4) %; Patients achieving IGA 0-1, n (%) [4]: (28.1) %; Patients achieving a ≥4-point improvement in peak pruritus NRS, n/N1 (%) [4]: (36.3) %; bacterial conjunctivitis rate (CsA-eligible, dupilumab q2w): 0.6%; conjunctivitis rate (CsA-eligible, dupilumab q2w): 5%; bacterial conjunctivitis rate (CsA-eligible, dupilumab qw): 1.1%; conjunctivitis rate (CsA-eligible, dupilumab qw): 3.3%; bacterial conjunctivitis rate (CsA-ineligible, dupilumab q2w): 3.8%; conjunctivitis rate (CsA-ineligible, dupilumab q2w): 1.9%; bacterial conjunctivitis rate (CsA-ineligible, dupilumab qw): 4.2%; conjunctivitis rate (CsA-ineligible, dupilumab qw): 4.2%; Patients achieving EASI 75, n (%) (Subset A (inadequate response or intolerance to CsA), Dupilumab 300 mg Q2W (N = 94)): (38.3) %; Patients achieving IGA 0-1, n (%) (Subset A, Dupilumab 300 mg Q2W): (29.8) %; Patients achieving a ≥4-point improvement in peak pruritus NRS, n/N1 (%) (Subset A, Dupilumab 300 mg Q2W): (33.7) %; Patients achieving EASI 75, n (%) (Subset A, Dupilumab 300 mg QW (N = 83)): (34.9) %; Patients achieving IGA 0-1, n (%) (Subset A, Dupilumab 300 mg QW): (27.7) %; Patients achieving a ≥4-point improvement in peak pruritus NRS, n/N1 (%) (Subset A, Dupilumab 300 mg QW): (34.1) %; Patients achieving EASI 75, n (%) (Subset B (remaining study population), Dupilumab 300 mg Q2W (N = 363)): (50.1) %; Patients achieving IGA 0-1, n (%) (Subset B, Dupilumab 300 mg Q2W): (38.8) %; Patients achieving a ≥4-point improvement in peak pruritus NRS, n/N1 (%) (Subset B, Dupilumab 300 mg Q2W): (39.5) %; Patients achieving EASI 75, n (%) (Subset B, Dupilumab 300 mg QW (N = 379)): (53.6) %; Patients achieving IGA 0-1, n (%) (Subset B, Dupilumab 300 mg QW): (38.8) %; Patients achieving a ≥4-point improvement in peak pruritus NRS, n/N1 (%) (Subset B, Dupilumab 300 mg QW): (40.9) %
